Measured values reported in article PMC3841161, “De Novo Design and Synthesis of Ultra-Short Peptidomimetic Antibiotics Having Dual Antimicrobial and Anti-Inflammatory Activities” (PLoS ONE, 2013).
Residues, ends and D or L forms follow the SMILES beside them. No end group written: not given here.

Assays:
[1] = test system: S. aureus [KCTC 1621]; format: cell-based, Staphylococcus aureus; conditions: KCTC 1621, 20 h
Method: (§1) The antimicrobial activity of the peptides against two Gram-positive bacterial strains and two Gram-negative bacterial strains was examined using the broth microdilution method in sterile 96-well plates. Aliquots (100 µL) of a bacterial suspension at 2×10^6 colony-forming units (CFU)/mL in 1% peptone were added to 100 µL of the peptide solution (serial two-fold dilutions in 1% peptone). After incubation for 18−20 h at 37°C, bacterial growth inhibition was determined by measuring the absorbance at 600 nm with a Microplate Autoreader EL 800 (Bio-Tek Instruments, VT). The minimal inhibitory concentration (MIC) was defined as the minimum peptide concentration inhibited bacteria growth. Two types of Gram-positive bacteria (S. epidermidis [KCTC 1917] and S. aureus [KCTC 1621]) and two types of Gram-negative bacteria (E. coli [KCTC 1682] and P. aeruginosa [KCTC 1637]) were procured from the Korean Collection for Type Cultures (KCTC) at the Korea Research Institute of Bioscience and Biotechnology (KRIBB). MRSA samples (CCARM 3089, CCARM 3090, and CCARM 3095) were obtained from the Culture Collection of Antibiotic-Resistant Microbes (CCARM) at Seoul Women's University (Seoul, Korea).

[2] = test system: four bacterial strains (E. coli, P. aeruginosa, S. epidermidis, S. aureus); format: cell-based; conditions: 20 h
Method: (§2) The prokaryotic selectivity of our designed HDAMPs is defined by the therapeutic index (TI) as a measure of the relative safety of the drug. It is a measure of a peptide's capability to differentiate any pathogen from a host cell. The TI value of each peptide was calculated as the ratio of the HC10 (the peptide concentration that produces 10% hemolysis toward hRBCs) to the geometric mean [GM; the geometric mean of the minimal inhibitory concentration (MIC) against four selected bacterial strains]. Larger values of TI correspond to greater prokaryotic selectivity.
as §1

[3] = test system: hRBCs versus four bacterial strains; assay: Prokaryotic selectivity (therapeutic index, HC10/GM); conditions: ratio of HC10 to GM; 512 µg/mL used for HC10 >256 and 128 µg/mL for MIC >64
Method: as §2

[4] = test system: P. aeruginosa [KCTC 1637]; format: cell-based, Pseudomonas aeruginosa; conditions: KCTC 1637, 20 h
Method: as §1

[5] = test system: MRSA 2 [CCARM 3090]; format: cell-based, methicillin-resistant Staphylococcus aureus; conditions: CCARM 3090, 20 h
Method: as §1

[6] = test system: MRSA 1 [CCARM 3089]; format: cell-based, methicillin-resistant Staphylococcus aureus; conditions: CCARM 3089, 20 h
Method: as §1

[7] = test system: MRSA 3 [CCARM 3095]; format: cell-based, methicillin-resistant Staphylococcus aureus; conditions: CCARM 3095, 20 h
Method: as §1

[8] = test system: E. coli [KCTC 1682]; format: cell-based, Escherichia coli; conditions: KCTC 1682, 20 h
Method: as §1

[9] = test system: S. epidermidis [KCTC 1917]; format: cell-based, Staphylococcus epidermidis; conditions: KCTC 1917, 20 h
Method: as §1

[10] = test system: trypsin; assay: Protease stability by RP HPLC; format: in vitro ADME; conditions: 5 µL of 10 mg/mL peptide in 25 µL of 0.2-µg/mL trypsin in PBS, 37°C, 0, 0.5, 1.0, 2.0 and 4 h; C18 RP-HPLC, 224 nm
Method: Five microliters of an aqueous peptide stock solution (10 mg/mL) were added to 25 µL of the 0.2-µg/mL trypsin solution in PBS, respectively, and incubated at 37°C for 0, 0.5, 1.0, 2.0, and 4 h. The 5-µL solution was taken out at each time interval and immediately frozen with liquid nitrogen. Individually thawed samples were loaded onto a C18 reverse-phase column for HPLC analysis (5 µm; 4.6 mm ×250 mm; Vydac). Peptides were eluted by a 60-min linear gradient of 0–90% (v/v) acetonitrile in water containing 0.05% (v/v) trifluoroacetic acid with a flow rate of 1 mL/min and detection of 224 nm.

| Molecule | Minimal Inhibitory Concentration (MIC) S. aureus [KCTC 1621] [1] | GM, geometric mean of the MIC values against four bacterial strains [2] | TI (HC10/GM), therapeutic index [3] | Minimal Inhibitory Concentration (MIC) P. aeruginosa [KCTC 1637] [4] | Minimal Inhibitory Concentration (MIC) MRSA 2 [CCARM 3090] [5] | Minimal Inhibitory Concentration (MIC) MRSA 1 [CCARM 3089] [6] | Minimal Inhibitory Concentration (MIC) MRSA 3 [CCARM 3095] [7] | Minimal Inhibitory Concentration (MIC) E. coli [KCTC 1682] [8] | Minimal Inhibitory Concentration (MIC) S. epidermidis [KCTC 1917] [9] | resistance to proteolysis by trypsin, remaining peptide by RP-HPLC (in words) [10] |
| --- | --- | --- | --- | --- | --- | --- | --- | --- | --- | --- |
| N=C(N)NCCC[C@H](NC(=O)[C@H](Cc1c[n+](CCCc2ccccc2)cn1CCCc1ccccc1)NC(=O)[C@@H](N)CCCNC(=N)N)C(N)=O [HDAMP-2] | 8 (11.4) µg/mL | 9 (12.8) µg/mL | 56.9 | 16 (22.7) µg/mL | 32 (45.5) µg/mL | 16 (22.7) µg/mL | 16 (22.7) µg/mL | 4 (5.7) µg/mL | 8 (11.4) µg/mL | – |
| WRWRWR-NH2 [(WR)3-NH2, reference compound] | 8 (7.7) µg/mL | 9 (8.6) µg/mL | 56.9 | 16 (15.3) µg/mL | – | – | – | 4 (3.8) µg/mL | 8 (7.7) µg/mL | – |
| N=C(N)NCCC[C@@H](NC(=O)[C@@H](N)Cc1c[n+](CCCCCCCc2ccccc2)cn1CCCCCCCc1ccccc1)C(N)=O [HDAMP-6] | 2 (3) µg/mL | 3.5 (5.3) µg/mL | 8 | 4 (6.1) µg/mL | 2 (3) µg/mL | 2 (3) µg/mL | 2 (3) µg/mL | 4 (6.1) µg/mL | 4 (6.1) µg/mL | fully resistant |
| N=C(N)NCCC[C@H](NC(=O)[C@H](Cc1cncn1CCCCCCCc1ccccc1)NC(=O)[C@@H](N)CCCNC(=N)N)C(N)=O [HDAMP-4] | 4 (6.2) µg/mL | 17.5 (27.3) µg/mL | 29.3 | 32 (49.9) µg/mL | 16 (24.9) µg/mL | 16 (24.9) µg/mL | 16 (24.9) µg/mL | 32 (49.9) µg/mL | 2 (3.1) µg/mL | – |
| N=C(N)NCCC[C@H](NC(=O)[C@H](Cc1c[n+](CCCCCCCc2ccccc2)cn1CCCCCCCc1ccccc1)NC(=O)[C@@H](N)CCCNC(=N)N)C(N)=O [HDAMP-1, Arg-His((CH2)7C6H5)2-Arg-NH2] | 4 (4.9) µg/mL | 3.5 (4.3) µg/mL | 10.3 | 4 (4.9) µg/mL | 2 (2.5) µg/mL | 2 (2.5) µg/mL | 2 (2.5) µg/mL | 4 (4.9) µg/mL | 2 (2.5) µg/mL | fully resistant |
| N=C(N)NCCC[C@H](NC(=O)[C@H](Cc1c[nH]c2ccccc12)NC(=O)[C@@H](N)CCCNC(=N)N)C(N)=O [RWR-NH2, reference compound] (H-Arg-Trp-Arg-NH2) | >64 (>124) µg/mL | >64 (>124) µg/mL | – | >64 (>124) µg/mL | – | – | – | >64 (>124) µg/mL | >64 (>124) µg/mL | – |
| N=C(N)NCCC[C@H](NC(=O)[C@@H](N)Cc1c[n+](CCCCCCCc2ccccc2)cn1CCCCCCCc1ccccc1)C(N)=O [HDAMP-3] | 2 (3) µg/mL | 3 (4.6). µg/mL | 6.3 | 4 (6.1) µg/mL | 2 (3) µg/mL | 2 (3) µg/mL | 2 (3) µg/mL | 4 (6.1) µg/mL | 2 (3) µg/mL | fully resistant |
| N=C(N)NCCC[C@@H](N)C(=O)N[C@@H](Cc1c[n+](CCCCCCCc2ccccc2)cn1CCCCCCCc1ccccc1)C(=O)N[C@H](CCCNC(=N)N)C(N)=O [HDAMP-5] | 8 (9.8) µg/mL | 12.0 (14.7) µg/mL | 10.8 | 16 (19.6) µg/mL | 8 (9.8) µg/mL | 8 (9.8) µg/mL | 8 (9.8) µg/mL | 16 (19.6) µg/mL | 8 (9.8) µg/mL | fully resistant |
